Experimental data as given in paper PMC8395040 (International Journal of Molecular Sciences, 2021).
Where two headings read alike, the source gives them in different places.

Legend:
GLI-luciferase reporter = molecular target: GLI-luciferase reporter; set-up: method as in PMID 24923765; settings: cited from earlier work
AsPC-1 = assay: MTT cytotoxicity assay, AsPC-1; type: cell-based; settings: Homo sapiens, ASPC1, 72 h, 0.05–50 µM
Method: (§1) Cytotoxicity assays were performed by using the MTT reduction method as described previously. Briefly, cancer cell lines were plated in flat-bottom 96-well plates at a cell concentration of 5 × 10^3 cells/well for the fastest growing lines, such as HEK293 and HT29 cells and 1 × 10^4 cells/well for more slowly growing lines, such as HCT116, H1975, BxPC-3, AsPC-1, B16-F10 and DAOY. Then, cells were incubated with the synthesised compounds at different concentrations (from 0.05 to 50 µM) in 200 µL with 10% FBS in RPMI 1640 or DMEM F12 culture medium at 37 °C for 72 h. Later, 10 µL of MTT were added at a final concentration of 0.5 mg/mL, incubated at 37 °C for 4 h, and then solubilised with 10% sodium dodecyl sulphate (SDS) in 0.1 mM HCl and incubated overnight at 37 °C. Formazan formation was measured at 570 nm in a multiwell plate reader (Cytation 5, Biotek Instruments, Winooski, VT, USA). Three independent biological replicates were performed.

Daoy = assay: MTT cytotoxicity assay, Daoy; type: cell-based, human; settings: Homo sapiens, Daoy, 72 h; for cytotoxicity at 50 µM: read-out: % Cytotoxicity (50 µM) DAOY; for IC50: 0.05–50 µM;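 on all read-outs here: viability read as formazan absorbance at 570 nm after MTT reduction, three independent biological replicates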
[1] = MTT cytotoxicity assay, HEK293 control cells; type: cell-based, human; settings: human, HEK293 cells; 50 µM, 72 h, MTT;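 further: Read-out is formazan absorbance at 570 nm from MTT reduction in 96-well plates, with three independent biological replicates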
HEK293 = assay: MTT cytotoxicity assay, HEK293 control cells; type: cell-based, human; settings: Homo sapiens, HEK293; MTT, 72 h, non-cancer cell line;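 further: Read-out is formazan absorbance at 570 nm from MTT reduction in 96-well plates, with three independent biological replicates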
HT29 = assay: MTT cytotoxicity assay, HT29; type: cell-based; settings: Homo sapiens; for cytotoxicity at 50 µM: read-out: % Cytotoxicity (50 µM) HT29; for IC50: 0.05–50 µM
Method: as §1

H1975 = assay: MTT cytotoxicity assay, H1975; type: cell-based; settings: Homo sapiens; for cytotoxicity at 50 µM: read-out: % Cytotoxicity (50 µM) H1975; for IC50: 0.05–50 µM
Method: as §1

tumour cell lines = assay: MTT cytotoxicity assay, summary over the tumour cell line panel; type: cell-based, human; settings: 50 µM, 72 h, MTT, tumour cell lines tested
Method: as §1

BxPC-3 = assay: MTT cytotoxicity assay, BxPC-3; type: cell-based; settings: Homo sapiens, 72 h, 0.05–50 µM
Method: as §1

HCT116 = assay: MTT cytotoxicity assay, HCT116; type: cell-based; settings: Homo sapiens; for cytotoxicity at 50 µM: read-out: % Cytotoxicity (50 µM) HCT116; for IC50: 0.05–50 µM
Method: as §1

Row | melting point [°C] | SMILES | IC50 in GLI-luciferase reporter assays (GLI-luciferase reporter) | IC50 (AsPC-1) [µM] | cytotoxicity at 50 µM (Daoy; 50 µM, MTT) [%] | cytotoxicity at 72 h, 50 µM [1] [%] | IC50 (HEK293) [µM] | cytotoxicity at 50 µM (HT29; HT-29, 50 µM, 72 h, MTT) [%] | IC50 (HT29; HT-29, MTT, 72 h) [µM] | cytotoxicity at 50 µM (H1975; NCI-H1975, 50 µM, 72 h, MTT) [%] | IC50 (H1975; NCI-H1975, MTT, 72 h) [µM] | cytotoxicity in tumour cell lines (tumour cell lines) | IC50 (BxPC-3) [µM] | cytotoxicity at 50 µM (HCT116; HCT-116, 50 µM, 72 h, MTT) [%] | IC50 (HCT116; HCT-116, MTT, 72 h) [µM] | IC50 (Daoy; MTT) [µM] | cytotoxicity at 50 µM (Daoy) [%] | cytotoxicity at 50 µM (HT29; HT-29, 72 h) [%] | cytotoxicity at 50 µM (H1975; NCI-H1975, 72 h) [%] | cytotoxicity at 50 µM (HCT116; HCT-116, 72 h) [%]
1 | – | Cc1ccc(CN2CCOCC2)cc1NC(=O)c1ccc(Nc2nc(-c3ccc(OC(F)(F)F)cc3)c3ncn(C)c3n2)cc1 [IV] | nanomolar range | – | – | – | – | – | – | – | – | – | – | – | – | – | – | – | – | –
2 | 109 to 110 | CCCCCn1cnc2c(-c3ccc(OC(F)(F)F)cc3)nc(N3CCN(c4ccncc4)CC3)nc21 [Compound 4r, 9-Pentyl-2-(4-(pyridin-4-yl)piperazin-1-yl)-6-(4-(trifluoromethoxy)phenyl)-9H-purine] | – | > 50 | 92 ± 0.4 | < 50 | > 50 | < 50 | > 50 | < 50 | 7.7 ± 0.4 | more than 80% | > 50 | 81 ± 0.8 | 19 ± 0.8 | – | – | – | – | –
3 | – | Cc1cccc(C)c1NC(=O)c1ccc(Nc2nc(-c3ccc(OC(F)(F)F)cc3)c3ncn(C)c3n2)cc1 [III] | nanomolar range | – | – | – | – | – | – | – | – | – | – | – | – | – | – | – | – | –
4 | 93 to 95 | CCCCn1cnc2c(-c3ccc(OC(F)(F)F)cc3)nc(NC3CCCC3)nc21 [Compound 4a, 9-Butyl-N-cyclopentyl-6-(4-(trifluoromethoxy)phenyl)-9H-purin-2-amine] | – | 20.1 ± 0.3 | 82 ± 6.2 | < 50 | > 50 | < 50 | > 50 | 66 ± 0.9 | 34 ± 0.9 | – | > 50 | 68 ± 0.3 | 32 ± 0.3 | 18 ± 0.2 | – | – | – | –

Row | SMILES | melting point [°C] | IC50 in GLI-luciferase reporter assays (GLI-luciferase reporter) | IC50 (AsPC-1) [µM] | cytotoxicity at 50 µM (Daoy; 50 µM, MTT) [%] | cytotoxicity at 72 h, 50 µM [1] [%] | IC50 (HEK293) [µM] | cytotoxicity at 50 µM (HT29; HT-29, 50 µM, 72 h, MTT) [%] | IC50 (HT29; HT-29, MTT, 72 h) [µM] | cytotoxicity at 50 µM (H1975; NCI-H1975, 50 µM, 72 h, MTT) [%] | IC50 (H1975; NCI-H1975, MTT, 72 h) [µM] | cytotoxicity in tumour cell lines (tumour cell lines) | IC50 (BxPC-3) [µM] | cytotoxicity at 50 µM (HCT116; HCT-116, 50 µM, 72 h, MTT) [%] | IC50 (HCT116; HCT-116, MTT, 72 h) [µM] | IC50 (Daoy; MTT) [µM] | cytotoxicity at 50 µM (Daoy) [%] | cytotoxicity at 50 µM (HT29; HT-29, 72 h) [%] | cytotoxicity at 50 µM (H1975; NCI-H1975, 72 h) [%] | cytotoxicity at 50 µM (HCT116; HCT-116, 72 h) [%]
5 | CCCCCn1cnc2c(-c3ccc(OC(F)(F)F)cc3)nc(NC3CCCCC3)nc21 [Compound 4e, N-cyclohexyl-9-pentyl-6-(4-(trifluoromethoxy)phenyl)-9H-purin-2-amine] | 108 to 110 | – | > 50 | – | < 50 | > 50 | – | > 50 | – | 23 ± 0.3 | – | > 50 | – | > 50 | > 50 | < 50 | < 50 | < 50 | < 50
